“And” between values parts separate entries of the source, which are not always exact repeats. Identical values can stand only once.
Conditions: Fluid (supercritical or subcritical phases); for viscosity: vibrating wire; for mass density: Buoyancy - hydrostatic balance with magnetic suspension - one sinker

CC [ethane]
Conditions	mass density	viscosity
307.15 K, 5348.1 kPa	–	0.03109 mPa·s
307.15 K, 5348.3 kPa	282.116 kg/m3	0.03109 mPa·s
307.15 K, 5348.5 kPa	282.128 kg/m3	0.0311 mPa·s
307.15 K, 5348.6 kPa	282.136 kg/m3	0.0311 mPa·s
307.15 K, 5367.9 kPa	283.622 kg/m3	0.0314 mPa·s
307.15 K, 5368.5 kPa	283.666 kg/m3	0.0314 mPa·s
307.15 K, 5369.1 kPa	283.708 kg/m3	0.03144 mPa·s
307.15 K, 5369.4 kPa	283.73 kg/m3	0.03141 mPa·s
307.15 K, 5648.1 kPa	299.179 kg/m3	0.03389 mPa·s
307.15 K, 5648.3 kPa	299.189 kg/m3	0.03388 mPa·s
307.15 K, 5648.7 kPa	299.204 kg/m3	0.03392 mPa·s
307.15 K, 5648.8 kPa	299.208 kg/m3	0.03391 mPa·s
307.15 K, 5673.9 kPa	300.263 kg/m3 and 300.265 kg/m3	0.0342 mPa·s and 0.03418 mPa·s
307.15 K, 5674 kPa	300.27 kg/m3	0.03416 mPa·s
307.15 K, 5674.2 kPa	300.276 kg/m3	0.03417 mPa·s
307.15 K, 6326.2 kPa	319.788 kg/m3	0.03773 mPa·s
307.15 K, 6328.2 kPa	319.833 kg/m3	0.03774 mPa·s
307.15 K, 6328.5 kPa	319.84 kg/m3	0.03772 mPa·s
307.15 K, 6328.9 kPa	319.85 kg/m3	0.03776 mPa·s
307.15 K, 6343.9 kPa	320.187 kg/m3	0.03781 mPa·s
307.15 K, 6344.7 kPa	320.206 kg/m3	0.03783 mPa·s
307.15 K, 6346 kPa	320.235 kg/m3	0.03784 mPa·s
307.15 K, 6347.2 kPa	320.26 kg/m3	0.03783 mPa·s
307.15 K, 7598.2 kPa	341.1 kg/m3	0.04226 mPa·s
307.15 K, 7602.2 kPa	341.152 kg/m3	0.0423 mPa·s
307.15 K, 7603 kPa	341.162 kg/m3	0.0423 mPa·s
307.15 K, 7700.1 kPa	342.393 kg/m3	0.04256 mPa·s
307.15 K, 7700.8 kPa	342.402 kg/m3	0.04257 mPa·s
307.15 K, 7701.7 kPa	342.413 kg/m3	0.04257 mPa·s
307.15 K, 9627.4 kPa	361.481 kg/m3	0.04726 mPa·s
307.15 K, 9628.1 kPa	361.486 kg/m3	0.04728 mPa·s
307.15 K, 9703.1 kPa	362.086 kg/m3	0.04743 mPa·s
307.15 K, 9703.6 kPa	362.09 kg/m3	0.04742 mPa·s
307.15 K, 9705 kPa	362.101 kg/m3	0.04738 mPa·s
307.15 K, 12507 kPa	380.383 kg/m3	0.05257 mPa·s
307.15 K, 12508 kPa	380.388 kg/m3	0.05257 mPa·s
307.15 K, 12509 kPa	380.392 kg/m3	0.05255 mPa·s
307.15 K, 12544 kPa	380.585 kg/m3	0.05276 mPa·s
307.15 K, 12545 kPa	380.588 kg/m3	0.05268 mPa·s
307.15 K, 12549 kPa	380.613 kg/m3	0.05262 mPa·s
307.15 K, 12554 kPa	380.638 kg/m3	0.05258 mPa·s and 0.0526 mPa·s
307.15 K, 12558 kPa	380.661 kg/m3	0.05263 mPa·s
307.15 K, 12559 kPa	380.663 kg/m3	0.05263 mPa·s
307.15 K, 15941 kPa	396.414 kg/m3	0.05768 mPa·s
307.15 K, 15981 kPa	396.579 kg/m3	0.05768 mPa·s
307.15 K, 15985 kPa	396.595 kg/m3	0.05765 mPa·s
307.15 K, 15986 kPa	396.599 kg/m3	0.05767 mPa·s
307.15 K, 15987 kPa	396.601 kg/m3	0.05769 mPa·s
307.15 K, 16874 kPa	400.063 kg/m3 and 400.065 kg/m3	0.05888 mPa·s and 0.05882 mPa·s
307.15 K, 16875 kPa	400.066 kg/m3 and 400.067 kg/m3 and 400.068 kg/m3	0.05887 mPa·s [middle of 4 runs]
307.15 K, 16876 kPa	400.071 kg/m3 and 400.073 kg/m3	0.05885 mPa·s
307.15 K, 16877 kPa	400.075 kg/m3	0.05884 mPa·s
307.15 K, 19746 kPa	410.021 kg/m3 and 410.023 kg/m3	0.06238 mPa·s and 0.06241 mPa·s
307.15 K, 19749 kPa	410.03 kg/m3	0.06236 mPa·s
307.15 K, 19750 kPa	410.034 kg/m3	0.06242 mPa·s
307.15 K, 19751 kPa	410.039 kg/m3	0.0624 mPa·s
307.15 K, 23209 kPa	420.154 kg/m3	0.06633 mPa·s
307.15 K, 23210 kPa	420.157 kg/m3 and 420.156 kg/m3	0.06633 mPa·s and 0.0663 mPa·s and 0.06634 mPa·s
307.15 K, 24530 kPa	423.617 kg/m3 and 423.615 kg/m3	0.06776 mPa·s and 0.06778 mPa·s and 0.06781 mPa·s
307.15 K, 24531 kPa	423.619 kg/m3	0.06774 mPa·s and 0.06775 mPa·s
307.15 K, 25875 kPa	426.955 kg/m3	0.06913 mPa·s
307.15 K, 25877 kPa	426.961 kg/m3	0.06914 mPa·s
307.15 K, 25879 kPa	426.966 kg/m3	0.06906 mPa·s
307.15 K, 25881 kPa	426.969 kg/m3	0.06911 mPa·s
307.15 K, 29053 kPa	434.215 kg/m3	0.07235 mPa·s
307.15 K, 29057 kPa	434.225 kg/m3	0.07232 mPa·s
307.15 K, 29063 kPa	434.238 kg/m3	0.07227 mPa·s
307.15 K, 29978 kPa	436.186 kg/m3 and 436.185 kg/m3	0.07317 mPa·s and 0.07325 mPa·s
307.15 K, 29979 kPa	436.187 kg/m3	0.07323 mPa·s
307.15 K, 29980 kPa	436.189 kg/m3	0.07314 mPa·s and 0.07319 mPa·s
423.15 K, 95.75 kPa	0.82018 kg/m3	0.01277 mPa·s
423.15 K, 95.83 kPa	0.82091 kg/m3	0.01276 mPa·s
423.15 K, 117.47 kPa	1.0068 kg/m3	0.01277 mPa·s
423.15 K, 117.64 kPa	1.0082 kg/m3	0.01277 mPa·s
423.15 K, 117.73 kPa	1.009 kg/m3	0.01277 mPa·s
423.15 K, 226.59 kPa	1.947 kg/m3	0.0128 mPa·s
423.15 K, 226.76 kPa	1.9485 kg/m3	0.0128 mPa·s
423.15 K, 459.37 kPa	3.9693 kg/m3	0.01284 mPa·s
423.15 K, 459.46 kPa	3.9701 kg/m3	0.01284 mPa·s
423.15 K, 691.62 kPa	6.0097 kg/m3	0.0129 mPa·s
423.15 K, 691.95 kPa	6.0126 kg/m3	0.01289 mPa·s
423.15 K, 915.95 kPa	8.0024 kg/m3	0.01294 mPa·s
423.15 K, 916.03 kPa	8.0031 kg/m3	0.01294 mPa·s
423.15 K, 1136.5 kPa	9.9828 kg/m3	0.01298 mPa·s
423.15 K, 1136.7 kPa	9.9843 kg/m3	0.01298 mPa·s
423.15 K, 1357.6 kPa	11.99 kg/m3	0.01303 mPa·s
423.15 K, 1357.9 kPa	11.993 kg/m3	0.01303 mPa·s
423.15 K, 1576.5 kPa	13.999 kg/m3	0.01306 mPa·s and 0.01307 mPa·s
423.15 K, 1794.4 kPa	16.02 kg/m3	0.01312 mPa·s
423.15 K, 1795 kPa	16.025 kg/m3	0.01311 mPa·s
423.15 K, 2007.1 kPa	18.014 kg/m3	0.01317 mPa·s
423.15 K, 2007.2 kPa	18.015 kg/m3	0.01317 mPa·s
423.15 K, 2209.1 kPa	19.928 kg/m3	0.01322 mPa·s
423.15 K, 2209.2 kPa	19.929 kg/m3	0.01322 mPa·s
423.15 K, 3243 kPa	30.033 kg/m3	0.01352 mPa·s
423.15 K, 3244.5 kPa	30.048 kg/m3	0.01351 mPa·s
423.15 K, 4164.4 kPa	39.494 kg/m3	0.01382 mPa·s
423.15 K, 4164.5 kPa	39.495 kg/m3	0.01382 mPa·s
423.15 K, 4551.5 kPa	43.602 kg/m3	0.01395 mPa·s
423.15 K, 4555.3 kPa	43.642 kg/m3	0.01396 mPa·s
423.15 K, 5910.6 kPa	58.665 kg/m3	0.01454 mPa·s
423.15 K, 5914.3 kPa	58.707 kg/m3	0.01455 mPa·s
423.15 K, 6746.2 kPa	68.424 kg/m3	0.01497 mPa·s
423.15 K, 6746.9 kPa	68.432 kg/m3	0.01497 mPa·s
423.15 K, 7528 kPa	77.889 kg/m3	0.01542 mPa·s
423.15 K, 7530.1 kPa	77.915 kg/m3	0.01542 mPa·s
423.15 K, 8298.5 kPa	87.517 kg/m3	0.0159 mPa·s
423.15 K, 8300.8 kPa	87.546 kg/m3	0.0159 mPa·s
423.15 K, 9235.9 kPa	99.586 kg/m3	0.01656 mPa·s
423.15 K, 9238.5 kPa	99.621 kg/m3	0.01656 mPa·s
423.15 K, 10732 kPa	119.465 kg/m3	0.01774 mPa·s
423.15 K, 10733 kPa	119.476 kg/m3	0.01775 mPa·s
423.15 K, 12215 kPa	139.509 kg/m3	0.0191 mPa·s
423.15 K, 12218 kPa	139.549 kg/m3	0.01909 mPa·s
423.15 K, 13727 kPa	159.706 kg/m3	0.02062 mPa·s
423.15 K, 13728 kPa	159.722 kg/m3	0.02062 mPa·s
423.15 K, 15325 kPa	180.142 kg/m3	0.02234 mPa·s
423.15 K, 15327 kPa	180.168 kg/m3	0.02234 mPa·s
423.15 K, 16990 kPa	199.904 kg/m3	0.0242 mPa·s
423.15 K, 16991 kPa	199.911 kg/m3	0.02421 mPa·s
423.15 K, 16992 kPa	199.925 kg/m3	0.0242 mPa·s
423.15 K, 18872 kPa	220.003 kg/m3	0.02632 mPa·s
423.15 K, 18874 kPa	220.02 kg/m3	0.02632 mPa·s
423.15 K, 18878 kPa	220.065 kg/m3	0.02633 mPa·s
423.15 K, 21034 kPa	240.207 kg/m3 and 240.204 kg/m3	0.0287 mPa·s
423.15 K, 23414 kPa	259.265 kg/m3	0.03119 mPa·s
423.15 K, 23415 kPa	259.275 kg/m3	0.0312 mPa·s
423.15 K, 26527 kPa	280.132 kg/m3	0.03425 mPa·s
423.15 K, 26529 kPa	280.144 kg/m3	0.03424 mPa·s
423.15 K, 30162 kPa	300.101 kg/m3	0.03757 mPa·s
423.15 K, 30174 kPa	300.162 kg/m3	0.03757 mPa·s
423.15 K, 30181 kPa	300.195 kg/m3	0.03756 mPa·s
423.15 K, 30183 kPa	300.204 kg/m3	0.03758 mPa·s

— the NIST ThermoML archive (doi:10.1021/je101178u)
